This experiment has as its target T1, E-selectin (Homo sapiens, UniProt P16581).
T1 sequence (P16581 whole entry): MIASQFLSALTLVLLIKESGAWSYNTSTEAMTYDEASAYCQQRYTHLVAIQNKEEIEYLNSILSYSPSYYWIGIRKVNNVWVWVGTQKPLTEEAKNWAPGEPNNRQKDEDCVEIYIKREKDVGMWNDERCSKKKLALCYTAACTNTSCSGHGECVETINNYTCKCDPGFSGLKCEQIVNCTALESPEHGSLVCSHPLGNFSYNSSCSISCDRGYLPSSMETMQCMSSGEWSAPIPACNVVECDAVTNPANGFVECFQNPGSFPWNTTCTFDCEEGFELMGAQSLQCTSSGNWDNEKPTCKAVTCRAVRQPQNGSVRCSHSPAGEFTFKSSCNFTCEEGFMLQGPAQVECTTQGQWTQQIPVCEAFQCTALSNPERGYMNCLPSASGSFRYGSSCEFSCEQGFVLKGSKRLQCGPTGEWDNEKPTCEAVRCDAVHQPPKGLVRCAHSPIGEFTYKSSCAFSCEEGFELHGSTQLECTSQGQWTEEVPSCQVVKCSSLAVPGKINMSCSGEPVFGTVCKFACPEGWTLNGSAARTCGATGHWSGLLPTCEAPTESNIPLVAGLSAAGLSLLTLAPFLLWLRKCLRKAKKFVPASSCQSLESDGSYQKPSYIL
The experiment can be described thus: In vitro inhibitory activity against Selectin E-sialyl Lewis X (sLex) binding.

Four compounds from ChEMBL document CHEMBL1131260, “Studies on selectin blockers. 6. Discovery of homologous fucose sugar unit necessary for E-selectin binding” (J Med Chem, 1998) can be followed below.

Usually IC50 stands for the midpoint of a concentration-inhibition curve. A high value points to lower potency.

`CCCCCCCCCCCCCCC(CCCCCCCCCCCCCC)C(=O)N[C@H](CO[C@@H]1O[C@H](C(C)O)[C@@H](O)[C@@H]1O)C(=O)N[C@@H](CCC(=O)O)C(=O)NC.N=C(N)NCCC[C@H](N)C=O` (some centres undefined) returned an IC50 of 4.3 µM.

On to `CCCCCCCCCCCCCCC(CCCCCCCCCCCCCC)C(=O)NC(COC1O[C@@H](O)[C@@H](O)[C@H](O)[C@@H]1O)C(=O)N[C@H](CCC(=O)O)C(=O)NC` (single isomer, unassigned), for which the IC50 was 13 µM.

For the compound `CCCCCCCCCCCCCCC(CCCCCCCCCCCCCC)C(=O)N[C@@H](CO[C@@H]1O[C@H](C(C)O)[C@@H](O)[C@@H]1O)C(=O)N[C@H](CCC(=O)O)C(=O)NC` (some centres undefined), the IC50 was 3.1 µM. This IC50 is about 4.2-fold lower than that of the compound before.

Compound `CCCCCCCCCCCCCCC(CCCCCCCCCCCCCC)C(=O)NC(CO[C@@H]1O[C@@H](O)[C@@H](O)[C@H](O)[C@@H]1O)C(=O)N[C@@H](CCC(=O)O)C(=O)NC` (single isomer, unassigned) showed an IC50 of 1.5 µM.
